From the NIST ThermoML archive (doi:10.1021/je4001697)
Numbers after ± are expanded uncertainties.

Conditions: Liquid, Pulse-echo method

Compound: Cc1ccccc1 [toluene]
- speed of sound (340 K, 103.2 kPa): 1128.5 ± 0.75 m/s
- speed of sound (340 K, 1103.7 kPa): 1134.9 ± 0.75 m/s
- speed of sound (340 K, 1104.1 kPa): 1134.9 ± 0.75 m/s
- speed of sound (340 K, 2104.3 kPa): 1141.2 ± 0.75 m/s
- speed of sound (340 K, 2104.9 kPa): 1141.2 ± 0.75 m/s
- speed of sound (340 K, 3105 kPa): 1147.5 ± 0.76 m/s
- speed of sound (340 K, 3105.8 kPa): 1147.5 ± 0.76 m/s
- speed of sound (340 K, 4105.8 kPa): 1153.6 ± 0.77 m/s
- speed of sound (340 K, 4106.6 kPa): 1153.6 ± 0.77 m/s
- speed of sound (340 K, 5107.2 kPa): 1159.7 ± 0.77 m/s
- speed of sound (340 K, 6107.7 kPa): 1165.7 ± 0.77 m/s
- speed of sound (340 K, 7108.4 kPa): 1171.7 ± 0.78 m/s
- speed of sound (340 K, 8109.1 kPa): 1177.5 ± 0.78 m/s
- speed of sound (340 K, 9109.7 kPa): 1183.4 ± 0.78 m/s
- speed of sound (340 K, 10110 kPa): 1189.1 ± 0.79 m/s
- speed of sound (340 K, 12612 kPa): 1203.2 ± 0.8 m/s
- speed of sound (340 K, 15114 kPa): 1217 ± 0.8 m/s
- speed of sound (340 K, 17615 kPa): 1230.4 ± 0.82 m/s
- speed of sound (340 K, 20117 kPa): 1243.5 ± 0.82 m/s
- speed of sound (340 K, 25120 kPa): 1268.8 ± 0.84 m/s
- speed of sound (340 K, 30124 kPa): 1293.1 ± 0.86 m/s
- speed of sound (340 K, 35128 kPa): 1316.4 ± 0.87 m/s
- speed of sound (340 K, 40131 kPa): 1338.9 ± 0.89 m/s
- speed of sound (340 K, 45135 kPa): 1360.6 ± 0.91 m/s
- speed of sound (340 K, 50139 kPa): 1381.6 ± 0.93 m/s
- speed of sound (340 K, 60146 kPa): 1421.7 ± 0.95 m/s
- speed of sound (340 K, 70153 kPa): 1459.5 ± 0.98 m/s
- speed of sound (340 K, 80160 kPa): 1495.4 ± 1 m/s
- speed of sound (340 K, 90166 kPa): 1529.6 ± 1 m/s
- speed of sound (340 K, 100174 kPa): 1562.3 ± 1.1 m/s
- speed of sound (359.99 K, 10111 kPa): 1114.3 ± 0.75 m/s
- speed of sound (359.99 K, 12613 kPa): 1129.7 ± 0.75 m/s
- speed of sound (359.99 K, 15114 kPa): 1144.6 ± 0.77 m/s
- speed of sound (359.99 K, 17616 kPa): 1159.1 ± 0.77 m/s
- speed of sound (359.99 K, 20117 kPa): 1173.3 ± 0.79 m/s
- speed of sound (359.99 K, 25121 kPa): 1200.5 ± 0.8 m/s
- speed of sound (359.99 K, 30124 kPa): 1226.4 ± 0.82 m/s
- speed of sound (359.99 K, 35128 kPa): 1251.3 ± 0.84 m/s
- speed of sound (359.99 K, 40131 kPa): 1275.1 ± 0.86 m/s
- speed of sound (359.99 K, 45134 kPa): 1298.1 ± 0.86 m/s
- speed of sound (359.99 K, 50138 kPa): 1320.2 ± 0.88 m/s
- speed of sound (359.99 K, 60145 kPa): 1362.3 ± 0.91 m/s
- speed of sound (359.99 K, 70152 kPa): 1402 ± 0.95 m/s
- speed of sound (359.99 K, 80159 kPa): 1439.4 ± 0.97 m/s
- speed of sound (359.99 K, 90166 kPa): 1475 ± 0.99 m/s
- speed of sound (359.99 K, 100173 kPa): 1508.9 ± 1 m/s
- speed of sound (360 K, 103.4 kPa): 1047.6 ± 0.7 m/s
- speed of sound (360 K, 1104.1 kPa): 1054.7 ± 0.7 m/s
- speed of sound (360 K, 2104.8 kPa): 1061.7 ± 0.71 m/s
- speed of sound (360 K, 3105.4 kPa): 1068.6 ± 0.72 m/s
- speed of sound (360 K, 4106.4 kPa): 1075.4 ± 0.72 m/s
- speed of sound (360 K, 5107 kPa): 1082.1 ± 0.73 m/s
- speed of sound (360 K, 6107.4 kPa): 1088.7 ± 0.73 m/s
- speed of sound (360 K, 7108 kPa): 1095.2 ± 0.73 m/s
- speed of sound (360 K, 8108.7 kPa): 1101.7 ± 0.74 m/s
- speed of sound (360 K, 9109.5 kPa): 1108 ± 0.75 m/s
- speed of sound (360 K, 10110 kPa): 1114.3 ± 0.75 m/s
- speed of sound (360 K, 12612 kPa): 1129.7 ± 0.75 m/s
- speed of sound (380 K, 101.06 kPa): 968.43 ± 0.66 m/s
- speed of sound (380 K, 1102.5 kPa): 976.37 ± 0.66 m/s
- speed of sound (380 K, 2103.4 kPa): 984.15 ± 0.67 m/s
- speed of sound (380 K, 3104.1 kPa): 991.81 ± 0.67 m/s
- speed of sound (380 K, 4105 kPa): 999.34 ± 0.68 m/s
- speed of sound (380 K, 5105.7 kPa): 1006.7 ± 0.68 m/s
- speed of sound (380 K, 6106.1 kPa): 1014 ± 0.68 m/s
- speed of sound (380 K, 7106.8 kPa): 1021.2 ± 0.7 m/s
- speed of sound (380 K, 8107.6 kPa): 1028.3 ± 0.7 m/s
- speed of sound (380 K, 9108.3 kPa): 1035.2 ± 0.7 m/s
- speed of sound (380 K, 10109 kPa): 1042.1 ± 0.7 m/s
- speed of sound (380 K, 12611 kPa): 1058.8 ± 0.72 m/s
- speed of sound (380 K, 15113 kPa): 1075 ± 0.72 m/s
- speed of sound (380 K, 17615 kPa): 1090.7 ± 0.74 m/s
- speed of sound (380 K, 20117 kPa): 1106 ± 0.74 m/s
- speed of sound (380 K, 25120 kPa): 1135.2 ± 0.77 m/s
- speed of sound (380 K, 30124 kPa): 1162.9 ± 0.79 m/s
- speed of sound (380 K, 35127 kPa): 1189.3 ± 0.79 m/s
- speed of sound (380 K, 40131 kPa): 1214.5 ± 0.81 m/s
- speed of sound (380 K, 45134 kPa): 1238.8 ± 0.83 m/s
- speed of sound (380 K, 50138 kPa): 1262.1 ± 0.85 m/s
- speed of sound (380 K, 60144 kPa): 1306.3 ± 0.88 m/s
- speed of sound (380 K, 70152 kPa): 1347.7 ± 0.9 m/s
- speed of sound (380 K, 80159 kPa): 1386.7 ± 0.94 m/s
- speed of sound (380 K, 90166 kPa): 1423.6 ± 0.97 m/s
- speed of sound (380 K, 100173 kPa): 1458.8 ± 0.99 m/s
- speed of sound (400 K, 603.01 kPa): 894.98 ± 0.62 m/s
- speed of sound (400 K, 608.94 kPa): 895.04 ± 0.62 m/s
- speed of sound (400 K, 1104.2 kPa): 899.42 ± 0.62 m/s
- speed of sound (400 K, 2104.6 kPa): 908.15 ± 0.63 m/s
- speed of sound (400 K, 3105.3 kPa): 916.7 ± 0.63 m/s
- speed of sound (400 K, 4105.1 kPa): 925.08 ± 0.63 m/s
- speed of sound (400 K, 4106 kPa): 925.07 ± 0.63 m/s
- speed of sound (400 K, 5106.7 kPa): 933.29 ± 0.65 m/s
- speed of sound (400 K, 6107.4 kPa): 941.35 ± 0.65 m/s
- speed of sound (400 K, 7108 kPa): 949.26 ± 0.65 m/s
- speed of sound (400 K, 8108.7 kPa): 957.04 ± 0.65 m/s
- speed of sound (400 K, 9109.3 kPa): 964.69 ± 0.65 m/s
- speed of sound (400 K, 10110 kPa): 972.21 ± 0.67 m/s
- speed of sound (400 K, 12612 kPa): 990.48 ± 0.67 m/s
- speed of sound (400 K, 15113 kPa): 1008.1 ± 0.69 m/s
- speed of sound (400 K, 17615 kPa): 1025 ± 0.7 m/s
- speed of sound (400 K, 20117 kPa): 1041.5 ± 0.7 m/s
- speed of sound (400 K, 25120 kPa): 1072.8 ± 0.72 m/s
- speed of sound (400 K, 30123 kPa): 1102.4 ± 0.74 m/s
- speed of sound (400 K, 35127 kPa): 1130.4 ± 0.8 m/s
- speed of sound (400 K, 40130 kPa): 1157.1 ± 0.79 m/s
- speed of sound (400 K, 45134 kPa): 1182.7 ± 0.81 m/s
- speed of sound (400 K, 50138 kPa): 1207.2 ± 0.81 m/s
- speed of sound (400 K, 60144 kPa): 1253.4 ± 0.9 m/s
- speed of sound (400 K, 70152 kPa): 1296.5 ± 0.88 m/s
- speed of sound (400 K, 80158 kPa): 1337 ± 0.9 m/s
- speed of sound (400 K, 90166 kPa): 1375.3 ± 0.94 m/s
- speed of sound (400 K, 100173 kPa): 1411.7 ± 0.96 m/s
- speed of sound (420 K, 1102.5 kPa): 823.4 ± 0.58 m/s
- speed of sound (420 K, 2103.2 kPa): 833.27 ± 0.58 m/s
- speed of sound (420 K, 3103.9 kPa): 842.89 ± 0.58 m/s
- speed of sound (420 K, 4104.6 kPa): 852.28 ± 0.6 m/s
- speed of sound (420 K, 5105.2 kPa): 861.45 ± 0.6 m/s
- speed of sound (420 K, 6105.9 kPa): 870.42 ± 0.6 m/s
- speed of sound (420 K, 7106.6 kPa): 879.2 ± 0.6 m/s
- speed of sound (420 K, 8107.3 kPa): 887.79 ± 0.62 m/s
- speed of sound (420 K, 9108 kPa): 896.21 ± 0.62 m/s
- speed of sound (420 K, 10109 kPa): 904.48 ± 0.62 m/s
- speed of sound (420 K, 12610 kPa): 924.47 ± 0.64 m/s
- speed of sound (420 K, 15112 kPa): 943.61 ± 0.65 m/s
- speed of sound (420 K, 17614 kPa): 961.99 ± 0.67 m/s
- speed of sound (420 K, 20116 kPa): 979.68 ± 0.67 m/s
- speed of sound (420 K, 25119 kPa): 1013.3 ± 0.69 m/s
- speed of sound (420 K, 30123 kPa): 1044.8 ± 0.72 m/s
- speed of sound (420 K, 35126 kPa): 1074.5 ± 0.74 m/s
- speed of sound (420 K, 40130 kPa): 1102.7 ± 0.74 m/s
- speed of sound (420 K, 45133 kPa): 1129.5 ± 0.76 m/s
- speed of sound (420 K, 50137 kPa): 1155.2 ± 0.8 m/s
- speed of sound (420 K, 60144 kPa): 1203.5 ± 0.8 m/s
- speed of sound (420 K, 70151 kPa): 1248.4 ± 0.85 m/s
- speed of sound (420 K, 80158 kPa): 1290.4 ± 0.88 m/s
- speed of sound (420 K, 90165 kPa): 1329.9 ± 0.92 m/s
- speed of sound (420 K, 100172 kPa): 1367.4 ± 0.94 m/s
